# From patent publication US11224604B2, “Treatment of graft versus host disease in transplant patients” (PRIOTHERA LIMITED, priority 2013, dated 2022)
# Test system: lethal GvHD in mice
# Assay: lethal GvHD in mice (BALB/c splenic cells into cyclophosphamide-treated BDF1 mice)
# Assay type: in vivo
# Conditions: day 1 to day 20
# Protocol: Female BALB/cAnNCrj mice and female Crj:BDF1 mice were purchased from CHARLES RIVER JAPAN and used at 10 weeks of age as donors and recipients, respectively.
# Spleens were collected from donor BALB/c mice. […] The single cell suspension was passed through a cell strainer (70 um, FALCON). The filtrate was centrifuged to collect the cell pellet. […] The number of nucleated cells in the suspension was calculated by staining using Turk's solution. […] This suspension served as a splenic cell suspension.
# Recipient BDF1 mice were treated with a dose of cyclophosphamide (SHIONOGI & CO., LTD.) at 300 mg/kg intraperitoneally on day0. One day after cyclophosphamide treatment, the BDF1 mice were intravenously injected with 0.25 mL
# (5×10^7 cells/mouse) of the splenic cell suspension from BALB/c mice to induce lethal GvHD.
# Treatment with a Compound (Control/CsA/KRP203)
# The compounds were orally administrated once a day from day 1 (just after injection of the splenic cells) to day 20. The mice were observed until day 70.
compound,measurement,setting,value
"NC(CO)(CO)CCc1ccc(Sc2cccc(OCc3ccccc3)c2)cc1Cl [KRP-203, 2-amino-2-[4-(3-benzyloxyphenylthio)-2-chlorophenyl]ethyl-propane-1,3-diol]",% Survival,"KRP-203 0.01 mg/kg orally once a day, Day 5 after injection of the splenic cells",100%
same,% Survival,"KRP-203 0.01 mg/kg orally once a day, Day 8 after injection of the splenic cells",89%
same,% Survival,"KRP-203 0.01 mg/kg orally once a day, Day 10 after injection of the splenic cells",67%
same,% Survival,"KRP-203 0.01 mg/kg orally once a day, Day 12 after injection of the splenic cells",44%
same,% Survival,"KRP-203 0.01 mg/kg orally once a day, Day 20 after injection of the splenic cells",44%
same,% Survival,"KRP-203 0.01 mg/kg orally once a day, Day 25 after injection of the splenic cells",44%
same,% Survival,"KRP-203 0.01 mg/kg orally once a day, Day 30 after injection of the splenic cells",44%
same,% Survival,"KRP-203 0.01 mg/kg orally once a day, Day 40 after injection of the splenic cells",33%
same,% Survival,"KRP-203 0.01 mg/kg orally once a day, Day 70 after injection of the splenic cells",33%
same,% Survival,"KRP-203 0.03 mg/kg orally once a day, Day 5 after injection of the splenic cells",100%
same,% Survival,"KRP-203 0.03 mg/kg orally once a day, Day 8 after injection of the splenic cells",100%
same,% Survival,"KRP-203 0.03 mg/kg orally once a day, Day 10 after injection of the splenic cells",100%
same,% Survival,"KRP-203 0.03 mg/kg orally once a day, Day 12 after injection of the splenic cells",100%
same,% Survival,"KRP-203 0.03 mg/kg orally once a day, Day 20 after injection of the splenic cells",100%
same,% Survival,"KRP-203 0.03 mg/kg orally once a day, Day 25 after injection of the splenic cells",100%
same,% Survival,"KRP-203 0.03 mg/kg orally once a day, Day 30 after injection of the splenic cells",100%
same,% Survival,"KRP-203 0.03 mg/kg orally once a day, Day 40 after injection of the splenic cells",100%
same,% Survival,"KRP-203 0.03 mg/kg orally once a day, Day 70 after injection of the splenic cells",100%
same,% Survival,"KRP-203 0.1 mg/kg orally once a day, Day 5 after injection of the splenic cells",100%
same,% Survival,"KRP-203 0.1 mg/kg orally once a day, Day 8 after injection of the splenic cells",100%
same,% Survival,"KRP-203 0.1 mg/kg orally once a day, Day 10 after injection of the splenic cells",100%
same,% Survival,"KRP-203 0.1 mg/kg orally once a day, Day 12 after injection of the splenic cells",100%
same,% Survival,"KRP-203 0.1 mg/kg orally once a day, Day 20 after injection of the splenic cells",100%
same,% Survival,"KRP-203 0.1 mg/kg orally once a day, Day 25 after injection of the splenic cells",100%
same,% Survival,"KRP-203 0.1 mg/kg orally once a day, Day 30 after injection of the splenic cells",100%
same,% Survival,"KRP-203 0.1 mg/kg orally once a day, Day 40 after injection of the splenic cells",100%
same,% Survival,"KRP-203 0.1 mg/kg orally once a day, Day 70 after injection of the splenic cells",100%
same,% Survival,"KRP-203 0.3 mg/kg orally once a day, Day 5 after injection of the splenic cells",100%
same,% Survival,"KRP-203 0.3 mg/kg orally once a day, Day 8 after injection of the splenic cells",100%
same,% Survival,"KRP-203 0.3 mg/kg orally once a day, Day 10 after injection of the splenic cells",100%
same,% Survival,"KRP-203 0.3 mg/kg orally once a day, Day 12 after injection of the splenic cells",100%
same,% Survival,"KRP-203 0.3 mg/kg orally once a day, Day 20 after injection of the splenic cells",100%
same,% Survival,"KRP-203 0.3 mg/kg orally once a day, Day 25 after injection of the splenic cells",100%
same,% Survival,"KRP-203 0.3 mg/kg orally once a day, Day 30 after injection of the splenic cells",100%
same,% Survival,"KRP-203 0.3 mg/kg orally once a day, Day 40 after injection of the splenic cells",100%
same,% Survival,"KRP-203 0.3 mg/kg orally once a day, Day 70 after injection of the splenic cells",100%
same,% Survival,"KRP-203 1 mg/kg orally once a day, Day 5 after injection of the splenic cells",100%
same,% Survival,"KRP-203 1 mg/kg orally once a day, Day 8 after injection of the splenic cells",100%
same,% Survival,"KRP-203 1 mg/kg orally once a day, Day 10 after injection of the splenic cells",100%
same,% Survival,"KRP-203 1 mg/kg orally once a day, Day 12 after injection of the splenic cells",100%
same,% Survival,"KRP-203 1 mg/kg orally once a day, Day 20 after injection of the splenic cells",100%
same,% Survival,"KRP-203 1 mg/kg orally once a day, Day 25 after injection of the splenic cells",100%
same,% Survival,"KRP-203 1 mg/kg orally once a day, Day 30 after injection of the splenic cells",100%
same,% Survival,"KRP-203 1 mg/kg orally once a day, Day 40 after injection of the splenic cells",100%
same,% Survival,"KRP-203 1 mg/kg orally once a day, Day 70 after injection of the splenic cells",100%
